Test results: publication PMC12481576, “Barbituric Acid Derivatives as Covalent Inhibitors of Leishmania braziliensis Dihydroorotate Dehydrogenase” (Journal of Medicinal Chemistry, 2025)
Where “and” joins values, the source holds several entries; their conditions need not be identical. Equal entries are not always repeated. Where two headings read alike, the source gives them in different places.

Legend:
[1] = tested on: Leishmania braziliensis promastigotes; test: Leishmanicidal activity, promastigote growth (SYBR Green, 72 h); format: cell-based, Leishmania (V.) braziliensis (MHOM/BR/1975/M2904); conditions: Leishmania braziliensis, L. braziliensis promastigotes, max 200 μM
In short: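 Cultures at 4 × 10^6 parasites/mL were exposed 72 h to serially decreasing compound levels, top 200 μM, with final DMSO 0.5% and medium-only control.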

[2] = Cell viability / cytotoxicity assay (PrestoBlue, 72 h); format: cell-based; conditions: human; THP-1 cell line, 72 h, max 200 μM; read-out: CC50
In short: (§1)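 Viability was measured with PrestoBlue fluorescence (560/590 nm, 2 h) after 72 h compound exposure at 37 °C. Test concentrations descended from 200 μM. The THP-1 monocytes had first been differentiated with 150 ng/mL phorbol myristate acetate for 48 h, then rested 24 h.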

THP-1 cells = test: as above; format: cell-based; conditions: THP-1 cell line, 72 h, max 200 μM
In short: as §1

LbDHODH = LbDHODH (Leishmania braziliensis, UniProt E9AI53); test: biochemical; conditions: for IC50: LbDHODH
In short: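 Covalent inactivation constant kinact/KI came from linear fitting of early kobs values against inhibitor concentration. Activity followed by A610 (DCIP, DHO substrate) every 3 s over 60 s in Tris pH 8.15/KCl/Triton X-100 buffer, in triplicate; single-point 100 μM screen run at 0 h and after 4-h preincubation.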

HsDHODH = biological target: T1, HsDHODH (Homo sapiens, UniProt Q02127); test: Selectivity assay: HsDHODH single-dose inhibition (DCIP reduction); format: biochemical
T1 construct: made in house
In short: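 Single-dose format, run in triplicate: His-purified HsDHODH (20 nM final) started by adding reaction buffer, absorbance at 610 nm (DCIP) recorded for 60 s at 3-s intervals. Initial rates converted to percent of no-compound control activity.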

[3] = Mouse liver microsome stability in the absence of cofactors (NCF); conditions: mouse liver microsomes, 60 min, no cofactor (NCF), raw LC-MS area
in vitro [4] = conditions: mouse, microsomes, pH 7.4, % Remaining, T=60 NCF
[5] = for Raw data: analyte peak area, T=0: 0 min; for Raw data: analyte peak area, T=0 / Raw data: analyte peak area, T=5 / Raw data: analyte peak area, T=10 / Raw data: analyte peak area, T=20 / Raw data: analyte peak area, T=30 / Raw data: analyte peak area, T=60: raw LC-MS area; for Raw data: analyte peak area, T=5: 5 min; for Raw data: analyte peak area, T=10: 10 min; for Raw data: analyte peak area, T=20: 20 min; for Raw data: analyte peak area, T=30: 30 min; for Raw data: analyte peak area, T=60: 60 min
in vitro [6] = conditions: liver microsomes; for microsomal CLint at 1 μM / remaining at 5 min, 1 μM: male, CD1, mouse; for remaining at 5 min, 1 μM / remaining at 10 min, 1 µM / remaining at 20 min, 1 µM / remaining at 0.5 h, 1 µM / remaining at 1 h, 1 µM: pH 7.4, % Remaining; for remaining at 5 min, 1 μM: T=5 min; for remaining at 10 min, 1 µM / remaining at 20 min, 1 µM / remaining at 0.5 h, 1 µM / remaining at 1 h, 1 µM: mouse; for remaining at 10 min, 1 µM: T=10 min; for remaining at 20 min, 1 µM: T=20 min; for remaining at 0.5 h, 1 µM: T=30 min, 30 min; for remaining at 1 h, 1 µM: T=60 min, 60 min
[7] = 0 h, pH 8.15, read-out: LbDHODH Activity±SD (%)
[8] = 4 h, pH 8.15, read-out: LbDHODH Activity±SD (%)
[9] = read-out: Single dose (0h) % activity
[10] = read-out: Single dose (4h) % activity
[11] = mouse liver microsomes, replicate 1 (left block)
[12] = mouse liver microsomes, replicate 2 (right block)
[13] = n=1, mouse liver microsomes, 1 µM, n=1
[14] = n=2, mouse liver microsomes, 1 µM, n=2

LbDHODH, sequence (E9AI53 entry or part of it): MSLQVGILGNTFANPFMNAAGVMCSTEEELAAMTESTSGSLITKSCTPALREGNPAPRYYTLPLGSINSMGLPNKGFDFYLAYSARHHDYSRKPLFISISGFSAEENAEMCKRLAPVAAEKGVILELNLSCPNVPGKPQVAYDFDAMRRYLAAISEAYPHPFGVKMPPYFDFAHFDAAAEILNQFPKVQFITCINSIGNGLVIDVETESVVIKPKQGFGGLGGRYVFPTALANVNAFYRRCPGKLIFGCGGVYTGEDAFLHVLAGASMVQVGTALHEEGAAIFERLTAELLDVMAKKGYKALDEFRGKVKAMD
T1 sequence (Q02127 whole entry): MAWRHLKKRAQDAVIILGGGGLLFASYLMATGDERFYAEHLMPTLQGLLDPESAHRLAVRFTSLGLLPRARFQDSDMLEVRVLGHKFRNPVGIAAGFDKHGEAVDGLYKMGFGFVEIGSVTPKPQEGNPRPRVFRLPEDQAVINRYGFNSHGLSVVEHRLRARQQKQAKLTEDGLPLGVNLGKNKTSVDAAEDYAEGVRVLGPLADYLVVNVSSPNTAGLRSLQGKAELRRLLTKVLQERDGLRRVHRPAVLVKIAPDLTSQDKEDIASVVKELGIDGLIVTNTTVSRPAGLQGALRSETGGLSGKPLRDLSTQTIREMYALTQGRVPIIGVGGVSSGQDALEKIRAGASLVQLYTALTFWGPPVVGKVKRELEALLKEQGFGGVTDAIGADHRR

## O=C1NC(=O)C(=Cc2ccc(-c3ccccc3)cc2)C(=O)N1 [2f, 5-([1,1′-Biphenyl]-4-ylmethylene)pyrimidine-2,4,6(1H,3H,5H)-trione]
[1]
  EC50: 19 ± 14 µM
[2]
  CC50 at 72 h: 12 ± 3 µM
THP-1 cells
  CC50: strong cytotoxicity
LbDHODH; [7]
  activity at 0.024414 µM: 97 ± 2%
  activity at 0.048828 µM: 93 ± 2%
  activity at 0.0976562 µM: 98 ± 2%
  activity at 0.195312 µM: 97 ± 2%
  activity at 0.390625 µM: 91 ± 2%
  activity at 0.78125 µM: 94 ± 2%
  activity at 1.5625 µM: 100 ± 2%
  activity at 3.125 µM: 94 ± 2%
  activity at 6.25 µM: 96 ± 2%
  activity at 12.5 µM: 86 ± 2%
  activity at 25 µM: 83 ± 2%
  activity at 50 µM: 71 ± 2%
  activity at 100 µM: 62 ± 2%
  activity at 200 µM: 43 ± 1%
LbDHODH; [8]
  activity at 0.024414 µM: 103 ± 3%
  activity at 0.048828 µM: 104 ± 3%
  activity at 0.0976562 µM: 104 ± 3%
  activity at 0.195312 µM: 95.5 ± 2%
  activity at 0.390625 µM: 95.9 ± 2%
  activity at 0.78125 µM: 85.6 ± 2%
  activity at 1.5625 µM: 83.3 ± 2%
  activity at 3.125 µM: 73.6 ± 2%
  activity at 6.25 µM: 53 ± 1%
  activity at 12.5 µM: 41 ± 1%
  activity at 25 µM: 25.2 ± 0.6%
  activity at 50 µM: 10 ± 0.2%
  activity at 100 µM: 3.8 ± 0.1%
  activity at 200 µM: 0.95 ± 0.02%
LbDHODH; IC50 0 h, without preincubation
  IC50: 160 ± 10 µM
LbDHODH; IC50 4 h, 4-h preincubation
  IC50: 7.7 ± 0.3 µM
LbDHODH; [9]
  activity at 100 µM: 62 ± 2%
LbDHODH; [10]
  activity at 100 µM: 3.8 ± 0.1%
LbDHODH; read-out: enzyme inhibition
  inhibition at 100 µM: 96.2%
HsDHODH; [9]
  activity at 100 µM: 103 ± 12%
HsDHODH; [10]
  activity at 100 µM: 78 ± 8%

## O=C(O)Cc1ccccc1Nc1c(Cl)cccc1Cl [Diclofenac]
[3]; replicate 1 (left block)
  Raw data: analyte peak area, T=60 NCF: 17862
[3]; replicate 2 (right block)
  Raw data: analyte peak area, T=60 NCF: 19654
In vitro [4]; n=1
  remaining at 1 h, 1 µM: 98.3%
In vitro [4]; n=2
  remaining at 1 h, 1 µM: 88.5%
[5]; mouse liver microsomes (CD1 male), 0.4 mg/ml protein, test conc 1 µM, average of n=1 and n=2
  Calculated T-half (min), Average: 59.3 min
[5]; mouse liver microsomes (CD1 male), 0.4 mg/ml protein, test conc 1 µM, replicate n=1
  Calculated T-half (min), n=1: 62.0 min and 61.99 min
[5]; mouse liver microsomes (CD1 male), 0.4 mg/ml protein, test conc 1 µM, replicate n=2
  Calculated T-half (min), n=2: 56.6 min and 56.57 min
[5]; [11]
  Raw data: analyte peak area, T=0: 17523
  Raw data: analyte peak area, T=5: 17080
  Raw data: analyte peak area, T=10: 15901
  Raw data: analyte peak area, T=20: 13027
  Raw data: analyte peak area, T=30: 11583
  Raw data: analyte peak area, T=60: 10413
[5]; [12]
  Raw data: analyte peak area, T=0: 19401
  Raw data: analyte peak area, T=5: 16757
  Raw data: analyte peak area, T=10: 17016
  Raw data: analyte peak area, T=20: 13336
  Raw data: analyte peak area, T=30: 11936
  Raw data: analyte peak area, T=60: 8808
[5]; mouse liver microsomes, 0.4 mg/ml protein, 1 µM, replicate n=1
  Calculated CLint, app (µl/min/mg), n=1: 27.95 µL/min/mg
[5]; mouse liver microsomes, 0.4 mg/ml protein, 1 µM, replicate n=2
  Calculated CLint, app (µl/min/mg), n=2: 30.63 µL/min/mg
[5]; mouse liver microsomes, 0.4 mg/ml, 1 µM, average, limited to T Half range 3.00 - […]
  Modified T-half (min), Average: 59.3 min
In vitro [6]; pH 7.4
  microsomal CLint at 1 μM: 27.9 µL/min/mg
In vitro [6]; [13]
  remaining at 5 min, 1 μM: 94%
  remaining at 10 min, 1 µM: 86.6%
  remaining at 20 min, 1 µM: 79.5%
  remaining at 0.5 h, 1 µM: 62%
  remaining at 1 h, 1 µM: 52.3%
In vitro [6]; [14]
  remaining at 5 min, 1 μM: 89.2%
  remaining at 10 min, 1 µM: 87%
  remaining at 20 min, 1 µM: 79%
  remaining at 0.5 h, 1 µM: 63%
  remaining at 1 h, 1 µM: 47.8%
In vitro [6]; pH 7.4, Calculated CLint, app (µl/min/mg), Average, mouse liver microsomes, 0.4 mg/ml protein, 1 µM
  microsomal CLint at 1 μM: 29.3 µL/min/mg
In vitro [6]; pH 7.4, Calculated CLint, app (µl/min/mg), n=1, mouse liver microsomes, 0.4 mg/ml protein, 1 µM, replicate n=1
  microsomal CLint at 1 μM: 27.9 µL/min/mg
In vitro [6]; pH 7.4, Calculated CLint, app (µl/min/mg), n=2, mouse liver microsomes, 0.4 mg/ml protein, 1 µM, replicate n=2
  microsomal CLint at 1 μM: 30.6 µL/min/mg
